# How the values were obtained:
# Assay in all cases: Antimicrobial activity (MIC)
# Type in all cases: cell-based
# [1] = test system: Leuconostoc lactis DSM 20202; details: DSM20202, potato dextrose broth pH 3.8, visual evaluation, read-out: Minimal Inhibitory Concentration (MIC)
# [2] = test system: Brettanomyces naardenensis CBS 6115; details: CBS6115, potato dextrose broth pH 3.8, visual evaluation, read-out: Minimal Inhibitory Concentration (MIC)
# [3] = test system: Porphyromonas gingivalis DSM 20709; details: DSM20709, potato dextrose broth pH 3.8, visual evaluation, read-out: Minimal Inhibitory Concentration (MIC)
# [4] = test system: Cladosporium cladosporioides DSM19653; details: potato dextrose broth pH 3.8, visual evaluation, read-out: Minimal Inhibitory Concentration (MIC)
# [5] = test system: Malassezia furfur DSM 6170; details: DSM6170, potato dextrose broth pH 3.8, visual evaluation, read-out: Minimal Inhibitory Concentration (MIC)
# [6] = test system: Listeria monocytogenes DSM 20600; details: DSM20600, potato dextrose broth pH 3.8, visual evaluation, read-out: Minimal Inhibitory Concentration (MIC)
# [7] = test system: Bacillus licheniformis DSM 13; details: DSM13, potato dextrose broth pH 3.8, visual evaluation, read-out: Minimal Inhibitory Concentration (MIC)
# [8] = test system: Zygosaccharomyces rouxii DSM 7525; details: DSM7525, potato dextrose broth pH 3.8, visual evaluation, read-out: Minimal Inhibitory Concentration (MIC)
# [9] = test system: Alternaria alternata DSM 12633; details: DSM12633, potato dextrose broth pH 3.8, visual evaluation, read-out: Minimal Inhibitory Concentration (MIC)
# [10] = test system: Cutibacterium acnes DSM 1897; details: DSM1897, potato dextrose broth pH 3.8, visual evaluation, read-out: Minimal Inhibitory Concentration (MIC)
# [11] = test system: Fusobacterium nucleatum subsp. vincentii DSM 19507; details: DSM19507, potato dextrose broth pH 3.8, visual evaluation, read-out: Minimal Inhibitory Concentration (MIC)
# [12] = test system: Phanerochaete chrysosporium DSM 1556; details: Phanerodontia chrysosporium, DSM1556, potato dextrose broth pH 3.8, visual evaluation, read-out: Minimal Inhibitory Concentration (MIC)
# [13] = test system: Lactobacillus plantarum ssp. plantarum DSM 20174; details: Lactiplantibacillus plantarum, DSM20174, potato dextrose broth pH 3.8, visual evaluation, read-out: Minimal Inhibitory Concentration (MIC)
# [14] = test system: Candida albicans ATCC10231; details: potato dextrose broth pH 3.8, visual evaluation, read-out: Minimal Inhibitory Concentration (MIC)
# [15] = test system: Salmonella enterica ssp. enterica Ser. typhimurium DSM 17058; details: potato dextrose broth pH 3.8, visual evaluation, read-out: Minimal Inhibitory Concentration (MIC)
Structure (SMILES),MIC [1] [µg/mL],MIC [2] [µg/mL],MIC [3] [µg/mL],MIC [4] [µg/mL],MIC [5] [µg/mL],MIC [6] [µg/mL],MIC [7] [µg/mL],MIC [8] [µg/mL],MIC [9] [µg/mL],MIC [10] [µg/mL],MIC [11] [µg/mL],MIC [12] [µg/mL],MIC [13] [µg/mL],MIC [14] [µg/mL],MIC [15] [µg/mL]
C[C@H]1CC[C@@]2(OC1)O[C@H]1CC3C4CC[C@H]5C[C@@H](O[C@@H]6O[C@H](CO)[C@H](O[C@@H]7O[C@H](CO)[C@@H](O)[C@H](O[C@@H]8OC[C@@H](O)[C@H](O)[C@H]8O)[C@H]7O[C@@H]7O[C@H](CO)[C@@H](O)[C@H](O)[C@H]7O)[C@H](O)[C@H]6O)[C@H](O)C[C@]5(C)C4=CC(=O)[C@]3(C)[C@H]1[C@@H]2C (stereo partly drawn) [A],80,> 80,> 80,> 80,> 80,> 80,> 80,500,> 80,> 80,80,> 80,40,> 80,> 80
C[C@@H]1CC[C@@]2(OC1)O[C@H]1CC3C4CC=C5CC(O[C@@H]6O[C@H](CO)[C@@H](O[C@@H]7O[C@@H](C)[C@H](O[C@@H]8O[C@@H](C)[C@H](O)[C@@H](O)[C@H]8O)[C@@H](O)[C@H]7O)[C@H](O)[C@H]6O[C@@H]6O[C@@H](C)[C@H](O)[C@@H](O)[C@H]6O)CC[C@]5(C)C4CC[C@]3(C)[C@@]1(O)[C@@H]2C (stereo partly drawn) [B],> 80,> 80,> 80,> 80,80,> 80,> 80,500,> 80,> 80,> 80,> 80,400,> 80,> 80
CC1CC[C@@]2(OC1)O[C@H]1CC3C4CC=C5C[C@@H](O[C@@H]6O[C@H](CO)[C@@H](O[C@@H]7O[C@@H](C)[C@H](O)[C@@H](O)[C@H]7O)[C@H](O)[C@H]6O[C@@H]6O[C@@H](C)[C@H](O)[C@@H](O)[C@H]6O)CC[C@]5(C)C4CC[C@]3(C)[C@@]1(O)[C@@H]2C (stereo partly drawn) [C],> 80,> 80,> 80,> 80,80,> 80,> 80,500,> 80,> 80,> 80,> 80,400,> 80,> 80
C[C@H]1CC[C@@]2(OC1)O[C@H]1CC3C4CC[C@H]5C[C@@H](O[C@@H]6O[C@H](CO)[C@H](O[C@@H]7O[C@H](CO)[C@@H](O)[C@H](O)[C@H]7O[C@@H]7O[C@H](CO)[C@@H](O)[C@H](O)[C@H]7O)[C@H](O)[C@H]6O)[C@H](O)C[C@]5(C)C4=CC(=O)[C@]3(C)[C@H]1[C@@H]2C (stereo partly drawn) [D],80,> 80,> 80,> 80,> 80,> 80,> 80,500,> 80,> 80,80,> 80,40,> 80,> 80

# — patent US20260034044A1, “A PRESERVATIVE COMPOSITION” (AnalytiCon Discovery - Zweigniederlassung der BRAIN Biotech …, priority 2022, published 2026)
